Tested on: NMNAT2
Test: NMNAT2-Hibit nano-luciferase activity in transfected U87MG cells, 25 μM, 24 hours
Format: cell-based
Settings: NMNAT2-Hibit luc plasmid, 24 hours (Table C)
Experimental: Selected compounds were tested in vitro. Briefly, U87MG cells were transfected with NMNAT2-Hibit luc plasmid. Cells were treated with a test compound at 25 μM for 24 hours. Cells were then collected and assayed for nano-luciferase activity.

Row | SMILES | C: Compound efficacy for NMNAT2 activation; increase in NMNAT2 luciferase activity
1 | O=C(CCc1cn(Cc2ccccc2F)c2ccccc12)NCc1ccco1 [Compound 181117] | + (“+” <20% increase in NMNAT2 luciferase activity.)
2 | O=C(Cn1c(-c2cccs2)cc2cc(F)ccc21)NCc1ccco1 [Compound 181118] | + (“+” <20% increase in NMNAT2 luciferase activity.)
3 | Cc1ccc(CNC(=O)Cn2c(-c3cccs3)cc3cc(F)ccc32)o1 [Compound 181119] | + (“+” <20% increase in NMNAT2 luciferase activity.)
4 | Cc1cc(C)n(CC(=O)NCc2ccccc2)c(=O)c1C#N [Compound 181120] | + (“+” <20% increase in NMNAT2 luciferase activity.)
5 | Cc1ccc(CNC(=O)Cn2c(C)cc(C)c(C#N)c2=O)cc1 [Compound 181121] | + (“+” <20% increase in NMNAT2 luciferase activity.)
6 | Cc1cc(C)n(CC(=O)NCc2ccc(Cl)cc2)c(=O)c1C#N [Compound 181122] | + (“+” <20% increase in NMNAT2 luciferase activity.)
7 | Cc1cc(C)n(CC(=O)NCc2ccc(F)cc2)c(=O)c1C#N [Compound 181123] | + (“+” <20% increase in NMNAT2 luciferase activity.)
8 | COc1ccc(CNC(=O)Cn2c(C)cc(C)c(C#N)c2=O)cc1 [Compound 181124] | + (“+” <20% increase in NMNAT2 luciferase activity.)
9 | COc1cccc(CNC(=O)Cn2c(C)cc(C)c(C#N)c2=O)c1 [Compound 181125] | + (“+” <20% increase in NMNAT2 luciferase activity.)
10 | COc1ccccc1CNC(=O)Cn1c(C)cc(C)c(C#N)c1=O [Compound 181126] | + (“+” <20% increase in NMNAT2 luciferase activity.)
11 | COc1ccc(CNC(=O)Cn2c(C)cc(C)c(C#N)c2=O)cc1OC [Compound 181127] | + (“+” <20% increase in NMNAT2 luciferase activity.)
12 | Cc1cc(C)n(CC(=O)NCc2ccco2)c(=O)c1C#N [Compound 181128] | + (“+” <20% increase in NMNAT2 luciferase activity.)
13 | Cc1cc(C)n(CC(=O)NCC2=CC=CC2)c(=O)c1C#N [Compound 181129] | + (“+” <20% increase in NMNAT2 luciferase activity.)
14 | Cc1cc(C)n(CC(=O)NCc2ccccc2Cl)c(=O)c1C#N [Compound 181130] | + (“+” <20% increase in NMNAT2 luciferase activity.)
15 | Cc1cc(C)n(CC(=O)NCCC(C)C)c(=O)c1C#N [Compound 181131] | + (“+” <20% increase in NMNAT2 luciferase activity.)
16 | CSc1ccc(CNC(=O)Cn2c(C)cc(C)c(C#N)c2=O)cc1 [Compound 181132] | + (“+” <20% increase in NMNAT2 luciferase activity.)
17 | Cc1cc(C)n(CC(=O)Nc2ccc(C(=O)NCc3ccco3)cc2)c(=O)c1C#N [Compound 181133] | + (“+” <20% increase in NMNAT2 luciferase activity.)
18 | Cc1ccc(CNC(=O)c2ccc(NC(=O)Cn3c(C)cc(C)c(C#N)c3=O)cc2)o1 [Compound 181134] | + (“+” <20% increase in NMNAT2 luciferase activity.)
19 | Cc1cc(C)n(CC(=O)Nc2ccccc2C(=O)NCc2ccco2)c(=O)c1C#N [Compound 181135] | + (“+” <20% increase in NMNAT2 luciferase activity.)
20 | Cn1c(=O)c(=O)n(CC(=O)NCc2ccco2)c2ccccc21 [Compound 181136] | + (“+” <20% increase in NMNAT2 luciferase activity.)

Row | SMILES | C: Compound efficacy for NMNAT2 activation; increase in NMNAT2 luciferase activity
21 | Cc1ccc(CNC(=O)Cn2c(=O)c(=O)n(C)c3ccccc32)o1 [Compound 181137] | + (“+” <20% increase in NMNAT2 luciferase activity.)
22 | CCn1c(=O)c(=O)n(CC(=O)NCc2ccco2)c2ccccc21 [Compound 181138] | + (“+” <20% increase in NMNAT2 luciferase activity.)
23 | CCn1c(=O)c(=O)n(CC(=O)NCc2ccc(C)o2)c2ccccc21 [Compound 181139] | + (“+” <20% increase in NMNAT2 luciferase activity.)
24 | Cc1cc2c(=O)n(CC(=O)NCc3ccco3)ccc2s1 [Compound 181140] | + (“+” <20% increase in NMNAT2 luciferase activity.)
25 | CCn1ccc2cc(CCC(=O)NCc3ccco3)ccc21 [Compound 181141] | ++ (“++” >20% and <100% increase in NMNAT2 luciferase activity.)
26 | Cc1ccc(C(CC(=O)NCc2ccco2)c2cn(C)c3ccccc23)cc1 (stereo not drawn) [Compound 181142] | + (“+” <20% increase in NMNAT2 luciferase activity.)
27 | Cn1cc(C(CC(=O)NCc2ccco2)c2cccc(F)c2)c2ccccc21 (stereo not drawn) [Compound 181143] | + (“+” <20% increase in NMNAT2 luciferase activity.)
28 | Cc1cc2ccccc2n1CC(=O)NCc1ccco1 [Compound 181144] | + (“+” <20% increase in NMNAT2 luciferase activity.)
29 | CC(=O)c1cn(CC(=O)NCc2ccco2)c2ccccc12 [Compound 181145] | + (“+” <20% increase in NMNAT2 luciferase activity.)
30 | COc1cccc2ccn(CC(=O)NCc3ccco3)c12 [Compound 181146] | + (“+” <20% increase in NMNAT2 luciferase activity.)
31 | O=C(Cn1ccc2ccccc21)NCc1ccco1 [Compound 181147] | + (“+” <20% increase in NMNAT2 luciferase activity.)
32 | O=C(Cn1ccc2ccccc21)NCc1ccc(F)cc1 [Compound 181148] | ++ (“++” >20% and <100% increase in NMNAT2 luciferase activity.)
33 | O=C(Cn1ccc2cc(Br)ccc21)NCc1ccco1 [Compound 181149] | ++ (“++” >20% and <100% increase in NMNAT2 luciferase activity.)
34 | COc1ccc(CNC(=O)Cn2ccc3ccc(F)cc32)cc1OC [Compound 181150] | + (“+” <20% increase in NMNAT2 luciferase activity.)
35 | COc1ccccc1CNC(=O)Cn1ccc2ccc(F)cc21 [Compound 181151] | + (“+” <20% increase in NMNAT2 luciferase activity.)
36 | O=C(Cn1ccc2ccc(F)cc21)NCc1ccco1 [Compound 181152] | + (“+” <20% increase in NMNAT2 luciferase activity.)
37 | O=C(Cn1ccc2ccc(Br)cc21)NCCCc1ccco1 [Compound 181153] | ++ (“++” >20% and <100% increase in NMNAT2 luciferase activity.)
38 | CC(CCc1ccco1)NC(=O)Cn1ccc2ccc(Br)cc21 (stereo not drawn) [Compound 181154] | ++ (“++” >20% and <100% increase in NMNAT2 luciferase activity.)
39 | O=C(NCCn1ccc2c(Cl)cccc21)c1ccco1 [Compound 181155] | + (“+” <20% increase in NMNAT2 luciferase activity.)
